# Test results as given in publication PMC4850841 (Journal of medicinal chemistry, 2013).
# Target: GluA1 (Rattus norvegicus, UniProt P19490)
# Test: Two electrode voltage clamp recordings, Xenopus laevis oocytes
# Type: cell-based
# Conditions: co-applied with 100 µM glutamate
# Sequence of GluA1 (P19490 19-907): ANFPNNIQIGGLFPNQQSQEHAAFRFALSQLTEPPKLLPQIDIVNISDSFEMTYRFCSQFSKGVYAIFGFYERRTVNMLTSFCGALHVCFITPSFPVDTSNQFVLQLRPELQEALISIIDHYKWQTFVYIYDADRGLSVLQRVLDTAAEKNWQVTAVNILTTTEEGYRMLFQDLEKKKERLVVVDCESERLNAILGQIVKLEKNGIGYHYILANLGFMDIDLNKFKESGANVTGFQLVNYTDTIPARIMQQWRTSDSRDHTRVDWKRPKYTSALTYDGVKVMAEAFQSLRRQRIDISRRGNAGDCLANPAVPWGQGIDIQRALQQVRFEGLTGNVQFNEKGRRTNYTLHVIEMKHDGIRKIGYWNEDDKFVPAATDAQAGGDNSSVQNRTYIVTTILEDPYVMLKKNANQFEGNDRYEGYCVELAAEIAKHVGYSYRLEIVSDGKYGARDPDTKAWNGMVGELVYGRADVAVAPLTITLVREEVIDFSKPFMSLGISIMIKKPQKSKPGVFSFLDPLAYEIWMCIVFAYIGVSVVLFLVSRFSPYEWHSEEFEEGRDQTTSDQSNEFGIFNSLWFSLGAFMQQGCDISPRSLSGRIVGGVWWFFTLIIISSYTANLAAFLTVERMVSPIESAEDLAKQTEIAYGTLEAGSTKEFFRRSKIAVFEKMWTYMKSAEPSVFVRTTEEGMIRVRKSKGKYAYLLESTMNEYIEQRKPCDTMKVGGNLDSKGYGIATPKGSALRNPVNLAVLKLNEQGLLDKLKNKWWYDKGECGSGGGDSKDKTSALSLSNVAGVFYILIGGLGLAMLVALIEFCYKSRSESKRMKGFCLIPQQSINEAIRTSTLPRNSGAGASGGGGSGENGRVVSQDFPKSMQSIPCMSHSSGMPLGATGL
row,effect on homomeric GluA1 responses,Compound
1,no effects,"COc1ccc(OCC2c3cc(OC)c(OC)cc3CCN2C(=O)c2cc(Cl)cc(Cl)c2)cc1 (stereo not drawn) [compound 87, (3,5-dichlorophenyl)(6,7-dimethoxy-1-((4-methoxyphenoxy)methyl)-3,4-dihydroisoquinolin-2(1H)-yl)methanone]"
2,no effects,"COc1ccc(OCC2c3cc(OC)c(OC)cc3CCN2C(=O)c2cccc(CCl)c2)cc1 (stereo not drawn) [compound 96, (3-(chloromethyl)phenyl)(6,7-dimethoxy-1-((4-methoxyphenoxy)methyl)-3,4-dihydroisoquinolin-2(1H)-yl)methanone]"
3,no effects,"COc1ccc(OCC2c3cc(OC)c(OC)cc3CCN2C(=O)c2cccc(C#N)c2)cc1 (stereo not drawn) [compound 98, 3-(6,7-dimethoxy-1-((4-methoxyphenoxy)methyl)-1,2,3,4-tetrahydroisoquinoline-2-carbonyl)benzonitrile]"
4,no effects,"COc1ccc(OCC2c3cc4c(cc3CCN2C(=O)c2cccc(Cl)c2)OCO4)cc1 (stereo not drawn) [compound 111, (3-chlorophenyl)(5-((4-methoxyphenoxy)methyl)-7,8-dihydro-[1,3]dioxolo[4,5-g]isoquinolin-6(5H)-yl)methanone]"
5,no effects,"COc1ccc(OCC2c3ccc(OC)cc3CCN2C(=O)c2cccc(Cl)c2)cc1 (stereo not drawn) [compound 117, (3-chlorophenyl)(6-methoxy-1-((4-methoxyphenoxy)methyl)-3,4-dihydroisoquinolin-2(1H)-yl)methanone]"
6,no effects,"COc1ccc(OCC2c3ccc(OC)cc3CCN2C(=O)c2cccc(Br)c2)cc1 (stereo not drawn) [compound 118, (3-bromophenyl)(6-methoxy-1-((4-methoxyphenoxy)methyl)-3,4-dihydroisoquinolin-2(1H)-yl)methanone]"
7,no effects,"COc1ccc(OCC2c3cc(OC)c(OC)cc3CCN2C(=O)c2ccc3ccccc3c2)cc1 (stereo not drawn) [compound 138, (6,7-dimethoxy-1-((4-methoxyphenoxy)methyl)-3,4-dihydroisoquinolin-2(1H)-yl)(naphthalen-2-yl)methanone]"
8,no effects,"COc1ccc(OCC2c3cc(OC)c(OC)cc3CCN2C(=O)CN2CCOCC2)cc1 (stereo not drawn) [compound 140, 1-(6,7-dimethoxy-1-((4-methoxyphenoxy)methyl)-3,4-dihydroisoquinolin-2(1H)-yl)-2-morpholinoethanone]"
9,no effects,"COc1ccc(/C=C/C2c3cc(OC)c(OC)cc3CCN2C(=O)c2ccccc2)cc1 (stereo not drawn) [compound 155, (E)-(6,7-dimethoxy-1-(4-methoxystyryl)-3,4-dihydroisoquinolin-2(1H)-yl)(phenyl)methanone]"
10,no effects,"COc1ccc(/C=C/C2c3cc(OC)c(OC)cc3CCN2C(=O)c2cccc(Br)c2)cc1 (stereo not drawn) [compound 157, (E)-(3-bromophenyl)(6,7-dimethoxy-1-(4-methoxystyryl)-3,4-dihydroisoquinolin-2(1H)-yl)methanone]"
11,no effects,"COc1ccc(/C=C/C2c3ccc(OC)cc3CCN2C(=O)c2cccc(Cl)c2)cc1 (stereo not drawn) [compound 158, (E)-(3-chlorophenyl)(6-methoxy-1-(4-methoxystyryl)-3,4-dihydroisoquinolin-2(1H)-yl)methanone]"
12,no effects,"COc1ccc(/C=C/C2c3ccc(OC)cc3CCN2C(=O)c2cccc(Br)c2)cc1 (stereo not drawn) [compound 159, (E)-(3-bromophenyl)(6-methoxy-1-(4-methoxystyryl)-3,4-dihydroisoquinolin-2(1H)-yl)methanone]"
13,no effects,"COc1ccc(CCC2c3cc(OC)c(OC)cc3CCN2C(=O)c2cccc(Cl)c2)cc1 (stereo not drawn) [compound 161, (3-chlorophenyl)(6,7-dimethoxy-1-(4-methoxyphenethyl)-3,4-dihydroisoquinolin-2(1H)-yl)methanone]"
14,no effects,"COc1ccc(CCC2c3cc(OC)c(OC)cc3CCN2C(=O)c2cccc(Br)c2)cc1 (stereo not drawn) [compound 162, (3-bromophenyl)(6,7-dimethoxy-1-(4-methoxyphenethyl)-3,4-dihydroisoquinolin-2(1H)-yl)methanone]"

# System: GluN2C/D-containing NMDA receptors
# Test: Potentiation of NMDA receptors, results stated jointly for both subtypes
# Type: cell-based, rat
# Conditions: not given
row,activity on GluN2C- or GluN2D-containing receptors,Compound
1,no detectable activity,"CCOc1ccc(OCC2c3cc(OC)c(OC)cc3CCN2C(=O)c2cccc(Cl)c2)cc1 (stereo not drawn) [compound 100, (3-chlorophenyl)(1-((4-ethoxyphenoxy)methyl)-6,7-dimethoxy-3,4-dihydroisoquinolin-2(1H)-yl)methanone]"
2,no detectable activity,"CCOc1ccc(OCC2c3cc(OC)c(OC)cc3CCN2C(=O)c2cccc(Br)c2)cc1 (stereo not drawn) [compound 101, (3-bromophenyl)(1-((4-ethoxyphenoxy)methyl)-6,7-dimethoxy-3,4-dihydroisoquinolin-2(1H)-yl)methanone]"
3,eliminated activity,"COc1ccc(SCC2c3cc(OC)c(OC)cc3CCN2C(=O)c2ccccc2)cc1 (stereo not drawn) [compound 127, (6,7-dimethoxy-1-(((4-methoxyphenyl)thio)methyl)-3,4-dihydroisoquinolin-2(1H)-yl)(phenyl)methanone]"
4,no detectable activity,"COc1cc2c(cc1OC)C(COc1ccc([N+](=O)[O-])cc1)N(C(=O)c1ccccc1)CC2 (stereo not drawn) [compound 128, (6,7-dimethoxy-1-((4-nitrophenoxy)methyl)-3,4-dihydroisoquinolin-2(1H)-yl)(phenyl)methanone]"
5,no detectable activity,"COc1cc2c(cc1OC)C(COc1ccc([N+](=O)[O-])cc1)N(C(=O)c1cccc(Cl)c1)CC2 (stereo not drawn) [compound 129, (3-chlorophenyl)(6,7-dimethoxy-1-((4-nitrophenoxy)methyl)-3,4-dihydroisoquinolin-2(1H)-yl)methanone]"
6,no detectable activity,"COc1cc2c(cc1OC)C(COc1ccc([N+](=O)[O-])cc1)N(C(=O)c1cccc(Br)c1)CC2 (stereo not drawn) [compound 130, ((3-bromophenyl)(6,7-dimethoxy-1-((4-nitrophenoxy)methyl)-3,4-dihydroisoquinolin-2(1H)-yl)methanone)]"
7,no detectable activity,"COc1cc2c(cc1OC)C(COc1ccc(N)cc1)N(C(=O)c1ccccc1)CC2 (stereo not drawn) [compound 131, ((1-((4-aminophenoxy)methyl)-6,7-dimethoxy-3,4-dihydroisoquinolin-2(1H)-yl)(phenyl)methanone)]"
8,no detectable activity,"COc1cc2c(cc1OC)C(COc1ccc(N)cc1)N(C(=O)c1cccc(Cl)c1)CC2 (stereo not drawn) [compound 132, ((1-((4-aminophenoxy)methyl)-6,7-dimethoxy-3,4-dihydroisoquinolin-2(1H)-yl)(3-chlorophenyl)methanone)]"
9,no detectable activity,"COc1cc2c(cc1OC)C(COc1ccc(N)cc1)N(C(=O)c1cccc(Br)c1)CC2 (stereo not drawn) [compound 133, ((1-((4-aminophenoxy)methyl)-6,7-dimethoxy-3,4-dihydroisoquinolin-2(1H)-yl)(3-bromophenyl)methanone)]"
10,eliminated all activity,"COc1ccc(OCC2c3cc(OC)c(OC)cc3CCN2Cc2ccccc2)cc1 (stereo not drawn) [compound 141, 2-benzyl-6,7-dimethoxy-1-((4-methoxyphenoxy)methyl)-1,2,3,4-tetrahydroisoquinoline]"
11,loss of activity,COc1ccc(OCC2c3cc(OC)c(OC)cc3CCN2C(=S)Nc2ccccc2)cc1 (stereo not drawn) [compound 211]
12,loss of activity,COc1ccc(OCC2c3cc(OC)c(OC)cc3CCN2C(=S)Nc2cccc(Cl)c2)cc1 (stereo not drawn) [compound 212]
13,loss of activity,COc1ccc(OCC2c3cc(OC)c(OC)cc3CCN2C(=S)Nc2cccc(F)c2)cc1 (stereo not drawn) [compound 213]
14,loss of activity,COc1ccc(OCC2c3cc(OC)c(OC)cc3CCN2C(=S)Nc2cccc(Br)c2)cc1 (stereo not drawn) [compound 214]
15,weak potentiating activity,COc1ccc(OCC2c3cc(OC)c(OC)cc3CCN2C(=S)Nc2cccc(C)c2)cc1 (stereo not drawn) [compound 215]
16,eliminated all activity,COc1ccc(OCC2c3cc(OC)c(OC)cc3CCN2S(=O)(=O)c2ccccc2)cc1 (stereo not drawn) [compound 216]
17,eliminated all activity,COc1ccc(OCC2c3cc(OC)c(OC)cc3CCN2S(=O)(=O)c2cccc(Cl)c2)cc1 (stereo not drawn) [compound 217]

row,Compound,activity on GluN2C- or GluN2D-containing receptors
1,"COc1ccc(OCC2c3ccc(OC)c(OC)c3CCN2C(=O)c2cccc(Cl)c2)cc1 (stereo not drawn) [compound 120, (3-chlorophenyl)(5,6-dimethoxy-1-((4-methoxyphenoxy)methyl)-3,4-dihydroisoquinolin-2(1H)-yl)methanone]",inactive
2,"COc1ccc(OCC2c3ccc(OC)c(OC)c3CCN2C(=O)c2cccc(Br)c2)cc1 (stereo not drawn) [compound 121, (3-bromophenyl)(5,6-dimethoxy-1-((4-methoxyphenoxy)methyl)-3,4-dihydroisoquinolin-2(1H)-yl)methanone]",inactive

# Same assay, conditions: read-out: EC50, GluN2C/GluN2D stated jointly; maximally effective concentrations of glutamate and glycine
row,EC50 [nM],Compound
1,300 to 400,"COc1ccc(OCC2c3ccc(OCc4ccccc4)cc3CCN2C(=O)c2cccc(Cl)c2)cc1 (stereo not drawn) [compound 82, (6-(benzyloxy)-1-((4-methoxyphenoxy)methyl)-3,4-dihydroisoquinolin-2(1H)-yl)(3-chlorophenyl)methanone]"
2,~1000,"COc1ccc(OCC2c3cc(C)c(C)cc3CCN2C(=O)c2cccc(Cl)c2)cc1 (stereo not drawn) [compound 122, (3-chlorophenyl)(1-((4-methoxyphenoxy)methyl)-6,7-dimethyl-3,4-dihydroisoquinolin-2(1H)-yl)methanone]"
3,~1000,"COc1ccc(OCC2c3cc(C)c(C)cc3CCN2C(=O)c2cccc(Br)c2)cc1 (stereo not drawn) [compound 123, (3-bromophenyl)(1-((4-methoxyphenoxy)methyl)-6,7-dimethyl-3,4-dihydroisoquinolin-2(1H)-yl)methanone]"
